What was measured:
Format in all cases: in vivo
Setaria faberi [1] = experiment: Post-emergence herbicidal activity, glasshouse pot test; parameters: key: 0 = no damage to plant, 5 = total damage to plant; details: Application post-emergence, rate 1000 g/ha, evaluated after 13 days
Procedure, shortened: (§1)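 Seeds sown in standard soil in pots, grown 8 days in glasshouse (24/16 °C day/night, 14 h light, 65% humidity), then sprayed with aqueous solution from active ingredient formulated in acetone/water (50:50) with 0.5% Tween 20. Plants regrown under same conditions, watered twice daily; damage scored after 13 days (0 none–5 total).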

Abutilon theophrasti [2] = experiment: as above; parameters: key: 0 = no damage to plant, 5 = total damage to plant; details: Application post-emergence, rate 1000 g/ha, evaluated after 13 days
Procedure, shortened: as §1

Alopecurus myosuroides [3] = experiment: as above; parameters: key: 0 = no damage to plant, 5 = total damage to plant; details: Application post-emergence, rate 1000 g/ha, evaluated after 13 days
Procedure, shortened: as §1

zea mays [4] = experiment: as above; parameters: key: 0 = no damage to plant, 5 = total damage to plant; details: Application post-emergence, rate 1000 g/ha, evaluated after 13 days
Procedure, shortened: as §1

Echinochloa crus-galli [5] = experiment: as above; parameters: key: 0 = no damage to plant, 5 = total damage to plant; details: Application post-emergence, rate 1000 g/ha, evaluated after 13 days
Procedure, shortened: as §1

Amaranthus retroflexus [6] = experiment: as above; parameters: key: 0 = no damage to plant, 5 = total damage to plant; details: Application post-emergence, rate 1000 g/ha, evaluated after 13 days
Procedure, shortened: as §1

Setaria faberi [7] = experiment: Pre-emergence herbicidal activity, glasshouse pot test; details: pre-emergence spray, rate 1000 g/ha, evaluated after 13 days, scale 0-5
Procedure, shortened: (§2)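 Damage score 0–5 (5 = total damage) read 13 d after spraying. Pots sown, sprayed pre-emergence at day 1 with aqueous spray from acetone/water 50:50 + 0.5% Tween 20 formulation; glasshouse 24/16 °C, 14 h light, 65% RH.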

Abutilon theophrasti [8] = experiment: as above; details: pre-emergence spray, rate 1000 g/ha, evaluated after 13 days, scale 0-5
Procedure, shortened: as §2

Alopecurus myosuroides [9] = experiment: as above; details: pre-emergence spray, rate 1000 g/ha, evaluated after 13 days, scale 0-5
Procedure, shortened: as §2

zea mays [10] = experiment: as above; details: pre-emergence spray, rate 1000 g/ha, evaluated after 13 days, scale 0-5
Procedure, shortened: as §2

Echinochloa crus-galli [11] = experiment: as above; details: pre-emergence spray, rate 1000 g/ha, evaluated after 13 days, scale 0-5
Procedure, shortened: as §2

Amaranthus retroflexus [12] = experiment: as above; details: pre-emergence spray, rate 1000 g/ha, evaluated after 13 days, scale 0-5
Procedure, shortened: as §2

SMILES	SETFA herbicidal damage score (Setaria faberi [1])	ABUTH herbicidal damage score (Abutilon theophrasti [2])	ALOMY herbicidal damage score (Alopecurus myosuroides [3])	ZEAMX herbicidal damage score (zea mays [4])	ECHCG herbicidal damage score (Echinochloa crus-galli [5])	AMARE herbicidal damage score (Amaranthus retroflexus [6])	SETFA damage score, application pre-emergence (Setaria faberi [7])	ABUTH damage score, application pre-emergence (Abutilon theophrasti [8])	ALOMY damage score, application pre-emergence (Alopecurus myosuroides [9])	ZEAMX damage score, application pre-emergence (zea mays [10])	ECHCG damage score, application pre-emergence (Echinochloa crus-galli [11])	AMARE damage score, application pre-emergence (Amaranthus retroflexus [12])
CC1=C(Cl)C(=O)N(c2ncc(F)cc2F)C1O (stereo not drawn) [AF62]	1	2	1	0	1	0	0	2	0	0	0	2
CC1=C(Cl)C(=O)N(c2ncc(C(F)(F)F)cc2F)C1O (stereo not drawn) [AF63]	1	1	1	0	1	0	0	0	0	0	0	0
CC1=C(Cl)C(=O)N(c2cc(OC(F)(F)F)ccn2)C1O (stereo not drawn) [AF74]	5	5	4	2	5	5	4	2	3	2	4	5
CCCC1=C(Cl)C(=O)N(c2cc(C(F)(F)F)ccn2)C1O (stereo not drawn) [AF81]	4	5	4	2	5	5	2	4	3	2	5	5
CC(C)(C)C1=C(Cl)C(=O)N(c2cc(C(F)(F)F)ccn2)C1O (stereo not drawn) [AF82]	0	0	0	2	3	0	0	0	0	1	0	0
CC(C)C1=C(Cl)C(=O)N(c2cc(C(F)(F)F)ccn2)C1O (stereo not drawn) [AF83]	0	2	3	0	2	0	1	0	2	1	2	2
CCC1=C(Cl)C(=O)N(c2cc(C(F)(F)F)ccn2)C1O (stereo not drawn) [AF84, 4-chloro-3-ethyl-2-hydroxy-1-[4-(trifluoromethyl)-2-pyridyl]-2H-pyrrol-5-one]	5	5	5	3	5	4	2	2	3	0	5	5
CC1=C(Cl)C(=O)N(c2cc(C(F)(F)F)c(-c3ccc(Cl)cc3)cn2)C1O (stereo not drawn) [AF87]	5	4	4	3	4	5	3	0	2	0	0	2
CC1=C(Cl)C(=O)N(c2cc(C(F)(F)F)c(C(=O)NC(C)(C)C)cn2)C1O (stereo not drawn) [AF88]	5	5	5	5	5	5	5	5	4	4	5	5
CC1=C(Cl)C(=O)N(c2cc3c(cn2)CCCC3)C1O (stereo not drawn) [AF89]	5	5	3	1	5	5	5	1	2	1	3	2
CC1=C(Cl)C(=O)N(c2cc(C(F)(F)F)c(C(=O)OC(C)C)cn2)C1O (stereo not drawn) [AF92]	5	5	4	4	5	5	5	2	4	3	3	4
CC1=C(Cl)C(=O)N(c2cc(C(F)(F)F)c(-c3ccc(C#N)cc3)cn2)C1O (stereo not drawn) [AF93]	4	4	4	2	4	5	0	1	0	0	0	2
CCC(=O)OC1C(C)=C(Cl)C(=O)N1c1cc(C(F)(F)F)c(-c2cccc(C#N)c2)cn1 (stereo not drawn) [AF94]	3	3	3	1	3	4	0	0	0	0	0	3
CC1=C(Cl)C(=O)N(c2cc(C(F)(F)F)c(-c3cccc(C#N)c3)cn2)C1O (stereo not drawn) [AF95]	4	3	2	2	2	5	0	0	0	0	0	0
CCN(CC)C(=O)c1cnc(N2C(=O)C(Cl)=C(C)C2O)cc1C(F)(F)F (stereo not drawn) [AF96]	0	0	0	1	0	0	0	0	0	0	0	0
CC1=C(Cl)C(=O)N(c2cc(C(F)(F)Cl)ccn2)C1O (stereo not drawn) [AF98]	5	5	5	3	5	5	5	1	3	2	5	5

Reference: patent US9963445B2, “Chemical compounds” (SYNGENTA PARTICIPATIONS AG, priority 2013, dated 2018)
